# In PMC9601927 (Foods, 2022):
# “Also recorded” adds a separate entry of the source.
# How the values were obtained:
# Format in all cases: cell-based
# Caco-2 cells [1] = settings: 2.3 × 10^−4 mg/mL ANC, 48 h
# Experimental: Due to cell membrane damage, the intracellular LDH was released into the culture medium. The LDH level was used as an indicator of irreversible cell death. The method used here was based on the spectrophotometric determination at 490 nm of NADH disappearance.
# Upon exposure to different concentrations of ANC, FA-g-CS, or their combinations, the culture medium was aspirated and centrifuged at 400× g for 5 min in tubes with a porous matrix to acquire a cell-free supernatant. A measure of 120 microliters of media was mixed with 60 μL of reagent in a 96-well plate, and the absorbance was recorded with PerkinElmer EnVision. The cytotoxicity of these substances was reflected using the following Equation (2):(2) LDH activity(mU/mL)=ODsample−ODblank/ODstandard−ODblank of standard×1000 mU/mL where ODsample, ODblank, ODstandard, and ODblank represent the measurements of the sample, the blank, the standard, and the blank of standard, respectively.
# sGLT1 [2] = assay: Western blot of sGLT1 expression in Caco-2 cells after siRNA transfection and incubation
# Experimental: Firstly, the cells were washed twice with 1 mL of cold PBS and then lysed in 100 μL of ice-cold RIPA lysis buffer. Western blot analysis was performed following the previous method with minor modifications. Briefly, total protein samples were resolved by SDS-PAGE (8%, 10%, or 12%) and transferred to PVDF membranes blocked with 5% nonfat milk powder in TBST; these were then incubated with 8 μg of primary antibody at a dilution of 1:1000/500 (v/v) overnight at 4 °C. Detection was performed with 10 mL of ECL and oxidizing reagent and equal amounts of HRP-conjugated anti-mouse at a 1:5000 (v/v) dilution rate. To further illustrate the effect of FA-g-CS on the transmembrane transport of ANC, the Caco-2 cells were transfected with siRNA targeted to sGLT1 and GLUT2 (the optimal interference fragments screened by previous tests) and then incubated with FA-g-CS, ANC, or their combinations. Finally, the expressions of sGLT1 and GLUT2 were detected using a Western blot assay.
# Caco-2 cells [3] = assay: MTT cell viability assay
# Experimental: Caco-2 cells were provided by the Cell Bank of the Chinese Academy of Sciences (Shanghai, China). MTT analysis was used to investigate cell viability. In short, Caco-2 cells were incubated with ANC (0.23, 0.69, 2.06, 6.17, 18.52, 55.56, 166.67, or 500 × 10^−3 mg/mL), FA-g-CS (0.09, 0.27, 0.82, 2.47, 7.41, 22.22, 66.67, or 200 × 10^−3 mg/mL), or their respective combinations. Each group was incubated with three multiple wells for 48 h. Subsequently, the chemical medium was replaced with fresh MTT solution for 3 h at 37 °C and the […] was dissolved with DMSO. Then, the optical density (OD) was measured at 570 nm using a PerkinElmer EnVision (PerkinElmer, Waltham, MA, USA). The following Formula (1) was used to calculate cell viability:(1) Cell viability(%)=ODsample−ODblank/ODcontrol−ODblank where ODcontrol, ODsample, and ODblank represent the measurements of the control, sample, and blank, respectively.
# sGLT1 [4] = assay: Immunofluorescence staining of sGLT1 in Caco-2 cells; settings: ANC 2.3 × 10^−4 mg/mL or FA-g-CS 9 × 10^−5 mg/mL, 48 h
# Experimental: (§1) Immunofluorescence staining was carried out to further validate the effect of FA-g-CS/ANC on the expression of sGLT1 and GLUT2. In short, Caco-2 cells were transfected with NC siRNA (negative control), GLUT2-siRNA-2, and sGLT1-siRNA-3; then, they were seeded onto a 4-well slide and chamber (Watson, Kobe, Japan). Subsequently, cells were incubated with 0.09 µg/mL FA-g-CS, 0.23 µg/mL ANC, or their combination at 37 °C for 48 h. Then, they were fixed with 4% paraformaldehyde for 10 min and soaked with 0.5% Triton X-100 in PBS for 15 min. In this study, goat serum was used to avoid nonspecific binding at room temperature. After 30 min of treatments, the cells were incubated with the primary antibody ([…], Santa Cruz Biotechnology, with 1:100 dilutions) at 4 °C overnight, followed by incubation with the secondary antibody (goat anti-mouse IgG1-HRP, Santa Cruz Biotechnology, Shanghai, China, with 1:100 dilutions) for 1 h at 20–37 °C. Nuclear staining was performed with DAPI, and the images were captured with a fluorescence microscope (BX53, Olympus, Tokyo, Japan).
# GLUT2 = assay: Immunofluorescence staining of GLUT2 in Caco-2 cells; settings: ANC 2.3 × 10^−4 mg/mL or FA-g-CS 9 × 10^−5 mg/mL, 48 h
# Experimental: as §1
smiles,measurement,setting,value
"OC[C@H]1O[C@@H](Oc2cc3c(O)cc(O)cc3[o+]c2-c2ccc(O)c(O)c2)[C@H](O)[C@@H](O)[C@@H]1O [ANC, Cyanidin-3-glucoside]",cell cytotoxicity (LDH assay),Caco-2 cells [1],negligible increase; also recorded: not toxic
same,expression of sGLT1 compared with the blank,sGLT1 [2]; cells treated with nonrelated and scrambled siRNA,significantly elevated
same,expression level of sGLT1 compared with the blank control,sGLT1 [2]; cells treated with siRNA transfection,significantly increased
same,increased sGLT1 expression,sGLT1 [2]; siRNA-transfected Caco-2 cells incubated with compounds (abstract),< 60%
same,"influence on Caco-2 cells (Figure 1A–C, MTT)",Caco-2 cells [3]; 2.3 × 10^−4 or 6.9 × 10^−4 mg/mL ANC,insignificant influence
same,effect on cell viability (MTT),"Caco-2 cells [3]; ANC concentration lower than 6.17 × 10^−3 mg/mL, 48 h",no significant effect
same,protein level of sGLT1 (immunofluorescence) compared with the control cells,sGLT1 [4],increased
same,protein level of GLUT2 (immunofluorescence) compared with the control cells,GLUT2,increased
